In brackets after ≈: the same amount, converted by molar mass.
How the values were obtained:
[1] = Solubilities of salts of the meriquinone of TMB (equilibration of solid salt with buffer, A650)
Procedure: These are stoichiometric concentrations, uncorrected for ionization at pH 5.0. […] Each wash involved a total volume of 1.5 ml (pellet volume of about 0.3 ml) in an Eppendorf polypropylene centrifuge tube. […] At 30-60 min intervals, the crystal suspensions were spun 3-5 min at room temperature in a Fisher micro-centrifuge. […] After scanning, the solutions and pellets were returned to the equilibration tubes for renewed shaking. Repeat measurements were taken until precision within 20% was obtained. […] Care was taken to assure that solid meriquinone salt and solid TMB were present in each tube. Excess (saturating) TMB was added to suppress the dissociation of meriquinone charge-transfer complex into component quinone diimine and TMB (see FIG. 1). […] These spectra contained absorbance peaks at 370 and 650 nm characteristic of meriquinone and a very small shoulder at 450 nm assigned to quinone diimine; a much larger peak near 280 nm confirmed the presence of excess TMB. […] If the concentration was too high to measure undiluted with a 1 cm light path, the scan was performed on an undiluted sample with a 2 mm light path or an appropriately diluted sample (later discarded) with a 1 cm light path.
Solubilities at 0 C. were determined for all solutions in which they were high enough for accurate measurement.
The dashed lines were visually fitted. […]

[2] = Solubility of TMB in a series of buffers; type: physicochemical; conditions: for solubility: read-out: Solubility at 30.9 C
Procedure: These are stoichiometric concentrations, uncorrected for ionization at pH 5.0. […] Each wash involved a total volume of 1.5 ml (pellet volume of about 0.3 ml) in an Eppendorf polypropylene centrifuge tube. […] At 30-60 min intervals, the crystal suspensions were spun 3-5 min at room temperature in a Fisher micro-centrifuge. […] After scanning, the solutions and pellets were returned to the equilibration tubes for renewed shaking. Repeat measurements were taken until precision within 20% was obtained. […] Care was taken to assure that solid meriquinone salt and solid TMB were present in each tube. Excess (saturating) TMB was added to suppress the dissociation of meriquinone charge-transfer complex into component quinone diimine and TMB (see FIG. 1). […] If the concentration was too high to measure undiluted with a 1 cm light path, the scan was performed on an undiluted sample with a 2 mm light path or an appropriately diluted sample (later discarded) with a 1 cm light path.

[3] = biological target: T1, horseradish peroxidase (HRP) (Armoracia rusticana, UniProt P00433); test: Kinetics of TMB oxidation by H2O2 and HRP in pH 3.9 fumarate-EDTA buffer; type: biochemical; conditions: 0.31 mM TMB, 3.0 mM H2O2, 10 mM Na fumarate, 1 mM EDTA, pH 3.92, 25 C
T1 sequence (P00433 31-353): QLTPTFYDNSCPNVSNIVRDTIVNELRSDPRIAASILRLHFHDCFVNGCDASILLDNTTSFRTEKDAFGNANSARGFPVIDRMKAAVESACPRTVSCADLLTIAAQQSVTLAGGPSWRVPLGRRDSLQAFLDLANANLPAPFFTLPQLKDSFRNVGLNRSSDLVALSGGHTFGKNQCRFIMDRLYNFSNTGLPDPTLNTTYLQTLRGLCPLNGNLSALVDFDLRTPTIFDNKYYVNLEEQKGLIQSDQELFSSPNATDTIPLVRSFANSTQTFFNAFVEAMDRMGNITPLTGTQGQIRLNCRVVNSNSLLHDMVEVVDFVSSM
Procedure: Stock HRP solutions were prepared in 0.10M NaCl, 1.0 mM Na phosphate, pH 6.0 to be 22 ng/ml or 0.43 ng/ml in HRP, shortly before assay, HRP-catalyzed oxidation of TMB by H2 O2 was initiated by adding 20 or 2.0 μl of […] or 20 or 10 μl of 0.43 ng/ml HRP to 1.00 ml of the assay solution at 25° C. […] At the two lower HRP concentrations (0.22 and 0.11 pM in the cuvette), the reaction was followed for 30 minutes. At the end of each reaction interval, replicate 100 μl volumes of reaction mixture were spotted on a Nuclepore polycarbonate filter (3 μm pore size) and dried by gentle suction to give deposits 3-4 mm in diameter.
The initial velocity was transformed from units of absorbance per time to reciprocal time (turnover number) by dividing by the meriquinone extinction coefficient, 3.9×10^4 M^-1 cm^-1, and by the HRP concentration. […] The transition time is the time to crystal nucleation. […] The A652 of the 30 minute reaction mixture for 0.11 pM HRP was below 0.03, the approximate visual threshold, so that filtration trapping served to concentrate the signal to improve visibility. […] In addition, a white membrane would offer sharper visual contrast than the slightly yellow, translucent, polycarbonate. The transition time has a very shallow HRP concentration dependence, so that even lower HRP concentrations are unlikely to require assay times longer than 30 minutes in order to permit crystallization to occur. The transition time probably could be lowered by adding anionic latex microspheres which might serve to nucleate crystallization.

horseradish peroxidase = biological target: T2, horseradish peroxidase (Armoracia rusticana, UniProt P00433); test: Horseradish peroxidase activity with TMB as chromogenic substrate, pH dependence; type: biochemical; conditions: from pH 5.0 to pH 4.0
T2 sequence (P00433 31-353): T1 sequence (P00433 31-353)
Procedure: (§1) Regarding step (e), three independent variables (apart from temperature) most strongly influence horseradish […] activity with TMB as chromogenic substrate: TMB concentration, H2 O2 concentration, and pH. […] For relatively short assays (0-10 min.), however, suicide is not severe, and initial velocity is the most important indicator of enzyme activity. Initial velocity rises monotonically with TMB concentration, and is almost proportional to TMB concentration at a H2 O2 concentration of greater than 2 mM. The pH dependence of initial velocity at constant TMB concentration indicates an optimum pH at 4. The pH dependence of TMB solubility indicates a monotonic and increasingly steep rise as the pH is lowered from 5. […] Therefore, a pH of 3.5-4.5 is the preferred pH range for step (e), more preferably pH 4.0, if the substituted benzidine is TMB and the oxidation catalyst is horseradish peroxidase. The optimum horseradish peroxidase assay conditions are at room temperature, pH 4.0, 0.4 mM (saturating) TMB, and 2-3 mM H2 O2.

[4] = Crystal nucleation and filter trapping of the fumarate salt of the meriquinone of TMB; type: physicochemical; conditions: 10 mM Na fumarate, pH 3.92, 25 C
Procedure: Stock HRP solutions were prepared in 0.10M NaCl, 1.0 mM Na phosphate, pH 6.0 to be 22 ng/ml or 0.43 ng/ml in HRP, shortly before assay, HRP-catalyzed oxidation of TMB by H2 O2 was initiated by adding 20 or 2.0 μl of […] or 20 or 10 μl of 0.43 ng/ml HRP to 1.00 ml of the assay solution at 25° C. […] At the end of each reaction interval, replicate 100 μl volumes of reaction mixture were spotted on a Nuclepore polycarbonate filter (3 μm pore size) and dried by gentle suction to give deposits 3-4 mm in diameter.
The initial velocity was transformed from units of absorbance per time to reciprocal time (turnover number) by dividing by the meriquinone extinction coefficient, 3.9×10^4 M^-1 cm^-1, and by the HRP concentration. […] The transition time is the time to crystal nucleation.

[5] = pH dependence of TMB solubility (saturating TMB); type: physicochemical; conditions: room temperature, pH 4.0; read-out: saturating TMB concentration
Procedure: as §1

Compound: Maleate
- Solubility Ratio: 25.2 C/0.0 C ([1]; averaged for the different stated concentrations of each salt, buffers pH 5.0 at room temperature): 8.1
- Molar Solubility in 0.1 M Anion ([1]; extrapolated, pH 5.0, 10% ethanol, 0.10M sodium acetate, 25.2 C): 4 × 10^-8 Molar

Compound: Cc1cc(-c2cc(C)c(N)c(C)c2)cc(C)c1N [TMB, 3,3',5,5'-tetramethylbenzidine]
- Solubility Ratio: 30.9 C/0.0 C ([2]; acetate buffer, pH 5.0, 0.10M): 2.4
- solubility ([2]; aqueous buffer, acetate buffer, pH 5.0, 0.10M): 170 µM (≈ 40.9 µg/mL)
- solubility ([2]; aqueous buffer, citrate buffer, pH 5.0, 0.10M): 170 µM (≈ 40.9 µg/mL)
- solubility ([2]; aqueous buffer, glutarate buffer, pH 5.0, 0.10M): 170 µM (≈ 40.9 µg/mL)
- solubility ([2]; aqueous buffer, maleate buffer, pH 5.0, 0.10M): 210 µM (≈ 50.5 µg/mL)
- solubility ([2]; aqueous buffer, malonate buffer, pH 5.0, 0.10M): 160 µM (≈ 38.5 µg/mL)
- solubility ([2]; aqueous buffer, phosphate buffer, pH 5.0, 0.10M): 160 µM (≈ 38.5 µg/mL)
- Solubility Ratio: 30.9 C/0.0 C ([2]; citrate buffer, pH 5.0, 0.10M): 2.3
- Solubility Ratio: 30.9 C/0.0 C ([2]; fumarate buffer, pH 5.0, 0.10M): 3.9
- solubility ([2]; fumarate buffer, pH 5, aqueous buffer): 160 µM (≈ 38.5 µg/mL)
- Solubility Ratio: 30.9 C/0.0 C ([2]; glutarate buffer, pH 5.0, 0.10M): 2.0
- Solubility Ratio: 30.9 C/0.0 C ([2]; maleate buffer, pH 5.0, 0.10M): 7.6
- Solubility Ratio: 30.9 C/0.0 C ([2]; malonate buffer, pH 5.0, 0.10M): 1.8
- Solubility Ratio: 30.9 C/0.0 C ([2]; oxalate buffer, pH 5.0, 0.10M): 12
- solubility ([2]; oxalate buffer, pH 5, aqueous buffer): 160 µM (≈ 38.5 µg/mL)
- Solubility Ratio: 30.9 C/0.0 C ([2]; phosphate buffer, pH 5.0, 0.10M): 2.0
- Solubility Ratio: 30.9 C/0.0 C ([2]; sulfate buffer, pH 5.0, 0.10M): 1.9
- solubility ([2]; sulfate buffer, pH 5, aqueous buffer): 150 µM (≈ 36.1 µg/mL)
- Vinitial ([3]; [HRP] 0.11 x 10^-12 M): 4.4 × 10^-5 WA652 S^-1
- Vinitial ([3]; [HRP] 0.21 x 10^-12 M): 8.0 × 10^-5 WA652 S^-1
- Vinitial ([3]; [HRP] 1.1 x 10^-12 M): 4.1 × 10^-4 WA652 S^-1
- Vinitial ([3]; [HRP] 11 x 10^-12 M): 4.2 × 10^-3 WA652 S^-1
- increase of initial velocity at saturating TMB (horseradish peroxidase): four-fold increase
- A652 at Transition ([4]; [HRP] 0.11 x 10^-12 M): 0.025
- Transition Time (time to crystal nucleation) ([4]; [HRP] 0.11 x 10^-12 M): 10 min
- A652 at Transition ([4]; [HRP] 0.21 x 10^-12 M): 0.04
- Transition Time (time to crystal nucleation) ([4]; [HRP] 0.21 x 10^-12 M): 10 min
- A652 at Transition ([4]; [HRP] 1.1 x 10^-12 M): 0.08
- Transition Time (time to crystal nucleation) ([4]; [HRP] 1.1 x 10^-12 M): 3 to 4 min
- A652 at Transition ([4]; [HRP] 11 x 10^-12 M): 0.25-0.50
- Transition Time (time to crystal nucleation) ([4]; [HRP] 11 x 10^-12 M): 1 to 2 min
- solubility [5]: 400 µM (≈ 96.1 µg/mL)

— patent publication US4789630A, “Ionic compounds containing the cationic meriquinone of a benzidine” (Cetus Corporation, priority 1986, dated 1988)
